# Measurements as given in patent US10500232B2, “Small molecule cellular reprogramming to generate neuronal cells” (The J. David Gladstone Institutes, a testamentary trust …, priority 2013, dated 2019).
# Like-named read-outs stand apart in the source and are kept apart here.
# Experiments:
# [1] = molecular target: mGlu4 (Homo sapiens, UniProt Q14833); settings: cited from earlier work
# [2] = tested on: Tau-EGFP mouse embryonic fibroblasts transduced with Ascl1/Myt1l; assay: High-throughput compound screening for Tau-EGFP expression and neuronal morphology; assay type: cell-based; settings: individual compound plus doxycycline 7 days, analysed day 14; hits confirmed dose-dependently in larger well format
# Procedure: Infected Tau-EGFP MEFs in 150-mm dishes were dissociated by trypsinization and plated to 384-well plates with 4×10^3 cells per well in 50 μl of N2B27 medium plus 2.0 μg ml^−1 doxycycline by using Multi-drop (Thermo Fisher). Fifty nanoliters of compounds from a collection of known drugs (˜3,000) were added to each well of infected cells by using BioMek (BD). After 3 days of compound treatment, […] N2B27 media were added to each well to keep the medium volume at 55-60 μl. The total period of compound treatment is 7 days. After that, medium was replaced with neuronal maturation medium for another 7 days. The cells were then fixed for immunostaining on Day 14. The high-throughput imaging was performed by using InCell 2000. Finally, the screening result was analyzed by InCell Workstation 2000.
# To conduct the chemical screening, Tau-EGFP mouse embryonic fibroblasts were used that were transduced with an Ascl1/Myt1l coding region that was under control of tet operator. These cells were plated at 4,000 cells/well in 384-well plates containing chemically defined N2B27 media. After overnight incubation, the cells were treated for seven days with doxycycline to induce Ascl1/Myt1l expression and also contacted with individual compounds selected from a drug collection containing over 3000 compounds. The media was then replaced with compound-free standard neuronal media. Cells were fixed at day 14 then analyzed for Tau-EGFP expression and neuronal morphology by high content imaging (FIG. 4A and FIG. 3).
# [3] = molecular target: SAPK2/p38 (Homo sapiens, UniProt Q16539); settings: inhibitor of CK1 and ALK5; cited from earlier work
# [4] = tested on: PDE4; settings: read-out: IC50 against PDE4; cited from earlier work
# [5] = tested on: histone deacetylases (HDACs); settings: read-out: IC50 (histone deacetylase), cited from earlier work
# [6] = molecular target: adenylate cyclase 1 (Homo sapiens, UniProt Q08828); settings: cited from earlier work
# [7] = tested on: STRC2-Ascl1/Myt1l neuronal cells from MEFs; assay: Patch clamp electrophysiology of STRC2-Ascl1/Myt1l induced neuronal cells; assay type: cell-based, mouse
# [8] = molecular target: mGlu receptors; settings: cited from earlier work
# [9] = tested on: HDAC activity in HeLa extracts; settings: read-out: IC50 for inhibition of HDAC activity; cited from earlier work
# [10] = molecular target: rat Group II mGlu receptor; settings: read-out: IC50 against rat Group II mGlu receptor; cited from earlier work
# [11] = molecular target: histone acetyltransferase p300 (Homo sapiens, UniProt Q09472); settings: simplified analog of CTPB; cited from earlier work
# [12] = tested on: RFP-positive miR124-RFP/Brn2 human fibroblast-derived cells; assay: Patch clamp electrophysiology of STRC2-treated miR124-RFP/Brn2 cells; assay type: cell-based
# Sequence of mGlu4 (Q14833 33-912): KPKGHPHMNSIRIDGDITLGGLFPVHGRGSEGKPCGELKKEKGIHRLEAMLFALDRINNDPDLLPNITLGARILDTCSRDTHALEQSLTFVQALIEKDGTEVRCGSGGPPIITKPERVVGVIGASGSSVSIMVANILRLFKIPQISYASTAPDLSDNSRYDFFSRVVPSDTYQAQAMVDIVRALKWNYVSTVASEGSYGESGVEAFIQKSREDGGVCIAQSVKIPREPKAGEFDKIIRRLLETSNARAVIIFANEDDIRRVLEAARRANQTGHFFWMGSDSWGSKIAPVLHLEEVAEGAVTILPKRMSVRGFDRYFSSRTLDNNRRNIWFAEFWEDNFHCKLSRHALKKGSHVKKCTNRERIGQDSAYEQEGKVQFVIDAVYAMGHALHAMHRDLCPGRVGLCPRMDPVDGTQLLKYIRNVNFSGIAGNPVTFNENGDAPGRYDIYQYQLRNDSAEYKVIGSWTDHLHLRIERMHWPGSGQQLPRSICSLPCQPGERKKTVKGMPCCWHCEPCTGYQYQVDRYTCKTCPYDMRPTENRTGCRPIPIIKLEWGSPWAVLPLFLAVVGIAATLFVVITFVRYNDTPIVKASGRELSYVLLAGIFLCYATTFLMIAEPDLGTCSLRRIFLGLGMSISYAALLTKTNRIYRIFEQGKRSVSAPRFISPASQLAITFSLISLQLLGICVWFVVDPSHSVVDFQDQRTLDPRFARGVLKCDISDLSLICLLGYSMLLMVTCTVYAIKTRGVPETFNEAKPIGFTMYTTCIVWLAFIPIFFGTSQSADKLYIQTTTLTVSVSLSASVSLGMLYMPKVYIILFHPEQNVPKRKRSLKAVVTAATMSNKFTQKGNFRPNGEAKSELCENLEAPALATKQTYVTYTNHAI
# Sequence of SAPK2/p38 (Q16539 whole entry): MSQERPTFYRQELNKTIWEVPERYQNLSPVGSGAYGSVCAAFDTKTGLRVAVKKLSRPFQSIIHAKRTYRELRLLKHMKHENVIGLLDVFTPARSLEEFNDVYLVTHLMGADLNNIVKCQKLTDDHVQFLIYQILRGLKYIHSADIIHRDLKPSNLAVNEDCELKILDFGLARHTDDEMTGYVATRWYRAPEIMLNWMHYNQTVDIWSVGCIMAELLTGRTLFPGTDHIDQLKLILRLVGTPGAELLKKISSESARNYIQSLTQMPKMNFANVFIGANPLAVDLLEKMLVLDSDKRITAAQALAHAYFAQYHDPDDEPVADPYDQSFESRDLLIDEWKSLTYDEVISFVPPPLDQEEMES
# Sequence of histone acetyltransferase p300 (Q09472 whole entry, species assumed): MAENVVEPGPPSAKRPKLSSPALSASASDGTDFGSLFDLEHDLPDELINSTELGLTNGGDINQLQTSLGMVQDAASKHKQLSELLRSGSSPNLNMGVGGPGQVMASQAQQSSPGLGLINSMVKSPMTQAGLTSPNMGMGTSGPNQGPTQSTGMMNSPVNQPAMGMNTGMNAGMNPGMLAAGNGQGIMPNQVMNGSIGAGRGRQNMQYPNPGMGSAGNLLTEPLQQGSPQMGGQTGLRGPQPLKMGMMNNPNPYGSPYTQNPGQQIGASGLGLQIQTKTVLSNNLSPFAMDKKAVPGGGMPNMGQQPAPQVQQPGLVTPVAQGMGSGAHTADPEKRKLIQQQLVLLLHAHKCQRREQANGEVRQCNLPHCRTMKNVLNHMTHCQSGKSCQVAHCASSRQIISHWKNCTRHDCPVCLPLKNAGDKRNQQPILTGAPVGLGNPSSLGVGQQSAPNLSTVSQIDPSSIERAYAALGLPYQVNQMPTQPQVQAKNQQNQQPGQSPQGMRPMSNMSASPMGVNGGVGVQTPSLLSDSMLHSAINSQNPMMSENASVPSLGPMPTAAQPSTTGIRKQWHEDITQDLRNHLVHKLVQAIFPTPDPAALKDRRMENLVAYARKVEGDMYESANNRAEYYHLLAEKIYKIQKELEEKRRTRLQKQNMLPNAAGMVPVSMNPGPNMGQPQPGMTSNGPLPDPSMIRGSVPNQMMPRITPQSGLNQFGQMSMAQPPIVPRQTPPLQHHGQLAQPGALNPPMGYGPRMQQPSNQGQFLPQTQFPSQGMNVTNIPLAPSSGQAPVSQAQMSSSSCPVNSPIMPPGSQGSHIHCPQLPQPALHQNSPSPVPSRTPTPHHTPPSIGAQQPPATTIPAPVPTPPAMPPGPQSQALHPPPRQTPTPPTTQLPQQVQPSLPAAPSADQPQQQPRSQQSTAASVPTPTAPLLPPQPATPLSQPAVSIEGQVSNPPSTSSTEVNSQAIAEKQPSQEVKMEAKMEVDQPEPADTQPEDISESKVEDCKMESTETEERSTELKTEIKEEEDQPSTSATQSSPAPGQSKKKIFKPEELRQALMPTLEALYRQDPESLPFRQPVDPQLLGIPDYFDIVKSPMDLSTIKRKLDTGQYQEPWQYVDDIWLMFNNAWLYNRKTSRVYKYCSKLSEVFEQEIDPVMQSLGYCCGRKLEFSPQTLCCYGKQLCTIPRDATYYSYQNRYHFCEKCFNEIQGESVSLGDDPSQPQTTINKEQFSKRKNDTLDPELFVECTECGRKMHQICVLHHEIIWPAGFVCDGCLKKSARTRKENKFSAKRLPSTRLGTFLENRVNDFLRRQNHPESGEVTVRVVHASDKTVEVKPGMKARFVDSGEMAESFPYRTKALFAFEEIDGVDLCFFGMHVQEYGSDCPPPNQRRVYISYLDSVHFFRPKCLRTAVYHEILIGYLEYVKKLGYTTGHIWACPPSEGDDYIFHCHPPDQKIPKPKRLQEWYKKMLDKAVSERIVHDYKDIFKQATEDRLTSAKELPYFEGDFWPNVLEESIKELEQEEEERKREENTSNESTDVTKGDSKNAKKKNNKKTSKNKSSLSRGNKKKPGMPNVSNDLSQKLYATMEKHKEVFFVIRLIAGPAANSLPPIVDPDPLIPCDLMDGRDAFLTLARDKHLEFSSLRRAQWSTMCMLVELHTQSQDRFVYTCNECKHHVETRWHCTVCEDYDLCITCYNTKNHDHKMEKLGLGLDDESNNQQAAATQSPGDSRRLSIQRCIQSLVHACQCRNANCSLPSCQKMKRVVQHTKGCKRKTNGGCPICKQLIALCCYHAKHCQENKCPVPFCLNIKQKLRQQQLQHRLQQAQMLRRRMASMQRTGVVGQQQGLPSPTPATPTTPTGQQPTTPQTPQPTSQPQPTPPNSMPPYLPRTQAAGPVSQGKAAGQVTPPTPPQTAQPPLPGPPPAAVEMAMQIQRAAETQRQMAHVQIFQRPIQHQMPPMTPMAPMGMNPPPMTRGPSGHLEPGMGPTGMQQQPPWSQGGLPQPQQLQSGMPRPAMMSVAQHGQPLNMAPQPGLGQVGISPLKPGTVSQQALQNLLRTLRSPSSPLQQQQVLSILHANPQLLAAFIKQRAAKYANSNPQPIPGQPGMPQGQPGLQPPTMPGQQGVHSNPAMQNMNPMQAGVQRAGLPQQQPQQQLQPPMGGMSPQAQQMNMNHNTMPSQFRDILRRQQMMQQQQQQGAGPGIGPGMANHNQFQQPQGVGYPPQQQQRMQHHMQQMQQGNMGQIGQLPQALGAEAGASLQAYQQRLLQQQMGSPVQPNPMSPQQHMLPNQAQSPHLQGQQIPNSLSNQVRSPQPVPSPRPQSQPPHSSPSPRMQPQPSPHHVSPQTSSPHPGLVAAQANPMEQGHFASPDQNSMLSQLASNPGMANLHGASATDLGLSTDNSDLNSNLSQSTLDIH
# Sequence of adenylate cyclase 1 (Q08828 whole entry): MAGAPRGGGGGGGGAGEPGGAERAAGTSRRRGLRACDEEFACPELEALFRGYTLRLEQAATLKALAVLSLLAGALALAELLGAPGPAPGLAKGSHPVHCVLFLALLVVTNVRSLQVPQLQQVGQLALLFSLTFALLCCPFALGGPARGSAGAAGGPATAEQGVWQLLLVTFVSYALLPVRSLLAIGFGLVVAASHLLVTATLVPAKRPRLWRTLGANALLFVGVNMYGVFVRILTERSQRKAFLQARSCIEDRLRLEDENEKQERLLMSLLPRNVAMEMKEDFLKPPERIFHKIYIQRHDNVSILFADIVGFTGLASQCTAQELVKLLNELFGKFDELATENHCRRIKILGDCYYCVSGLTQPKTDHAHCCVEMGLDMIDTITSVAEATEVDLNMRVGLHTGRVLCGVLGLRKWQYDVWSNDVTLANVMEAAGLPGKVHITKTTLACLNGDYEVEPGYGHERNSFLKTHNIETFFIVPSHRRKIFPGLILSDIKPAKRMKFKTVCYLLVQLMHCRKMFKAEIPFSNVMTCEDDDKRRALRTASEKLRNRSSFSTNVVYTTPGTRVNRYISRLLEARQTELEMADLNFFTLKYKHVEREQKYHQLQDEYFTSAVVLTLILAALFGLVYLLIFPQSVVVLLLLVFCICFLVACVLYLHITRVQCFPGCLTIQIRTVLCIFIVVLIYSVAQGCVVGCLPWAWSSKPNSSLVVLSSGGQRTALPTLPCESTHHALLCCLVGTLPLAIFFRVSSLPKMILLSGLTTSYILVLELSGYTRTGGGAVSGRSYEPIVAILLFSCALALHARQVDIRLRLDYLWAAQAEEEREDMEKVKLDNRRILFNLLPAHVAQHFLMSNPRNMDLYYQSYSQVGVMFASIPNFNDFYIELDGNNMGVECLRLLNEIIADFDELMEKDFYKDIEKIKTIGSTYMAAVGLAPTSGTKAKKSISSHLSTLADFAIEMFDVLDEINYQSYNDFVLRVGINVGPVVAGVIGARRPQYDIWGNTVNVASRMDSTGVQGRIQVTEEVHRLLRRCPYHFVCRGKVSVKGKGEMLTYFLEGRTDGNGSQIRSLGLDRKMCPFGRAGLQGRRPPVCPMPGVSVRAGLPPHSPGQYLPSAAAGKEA
compound,measurement,setting,value
"NC(=O)[C@H]1CCCC[C@H]1C(=O)Nc1ccc(Cl)c(Cl)c1 [Lu AF21935, (1R,2S)-N1-(3,4-dichlorophenyl)cyclohexane-1,2-dicarboxamide]",EC50,[1],> 10000 nM
"CCCCCCCCCCCCCCCc1cccc(OCC)c1C(=O)Nc1ccc(Cl)c(C(F)(F)F)c1 [CTPB, N-(4-chloro-3-trifluoromethyl-phenyl)-2-ethoxy-6-pentadecyl-benzamide]",induction of Tau-EGFP expression and neuronal morphology (screen hit),[2],induce Tau-EGFP expression and a neuronal morphology
"NC(=O)c1ccc(-c2nc(-c3ccc4c(c3)OCO4)c(-c3ccccn3)[nH]2)cc1 [SB 431542, 4-[4-(1,3-benzodioxol-5-yl)-5-(2-pyridinyl)-1H-imidazol-2-yl]benzamide]",induction of Tau-EGFP expression and neuronal morphology (screen hit),[2],induce Tau-EGFP expression and a neuronal morphology
"NC(=O)c1ccc(-c2nc(-c3ccc4c(c3)OCCO4)c(-c3ccccn3)[nH]2)cc1 [D 4476, 4-[4-(2,3-Dihydro-1,4-benzodioxin-6-yl)-5-(2-pyridinyl)-IH-imidazol-2-yl]benzamide]",selectivity over SAPK2/p38,[3],greater than 20 fold
COc1ccc(C(=O)Nc2c(Cl)c[n+]([O-])cc2Cl)c2ccc(C(F)(F)F)nc12 [Sch-351591],IC50,[4],150 nM
CCc1nn(C2CCCC2)c2c1CCn1c(-c3cccs3)nnc1-2 [tofimilast],IC50,[4],~13 nM
"Nc1ccccc1NC(=O)c1ccc(CNc2nccc(-c3cccnc3)n2)cc1 [MGCD0103, N-(2-aminophenyl)-4-[[(4-pyridin-3-ylpyrimidin-2-yl)amino]methyl]benzamide]",IC50,[5]; isoform not stated,~100 nM
"C[C@@H](N)[C@H]1CC[C@H](C(=O)Nc2ccncc2)CC1 [Y27632, 4-[(1R)-1-aminoethyl]-N-pyridin-4-ylcyclohexane-1-carboxamide]",induction of Tau-EGFP expression and neuronal morphology (screen hit),[2],induce Tau-EGFP expression and a neuronal morphology
C=C[C@@]1(C)CC(=O)[C@]2(O)[C@@]3(C)[C@@H](O)CCC(C)(C)[C@@H]3[C@H](O)[C@H](OC(C)=O)[C@@]2(C)O1 [Forskolin],IC50,[6],40 to 150 nM
"COc1ccc([C@H](Cc2ccncc2)c2ccccc2)cc1OC1CCCC1 [CDP-840, 4-[(2R)-2-(3-cyclopentyloxy-4-methoxyphenyl)-2-phenylethyl]pyridine]",IC50,[4],~10000 nM
"NS(=O)(=O)c1cccc2c1c([N+](=O)[O-])cc1nc(O)c(O)nc12 [NBQX, 2,3-dihydroxy-6-nitro-7-sulfamoylbenzo quinoxaline]",effect on spontaneous excitatory postsynaptic current (sEPSC),"[7]; AMPA receptor antagonist, 10 μM",blocked
"COc1ccc(C(=O)Nc2cc(Cl)cnc2Cl)c2cccnc12 [D-4418, N-(2,5-dichloropyridin-3-yl)-8-methoxyquinoline-5-carboxamide]",IC50,[4],~170 nM
"Cc1c[nH]c(-c2cnc(NCCNc3ccc(C#N)cn3)nc2-c2ccc(Cl)cc2Cl)n1 [CHIR99021, 6-(2-(4-(2,4-dichlorophenyl)-5-(4-methyl-1H-imidazol-2-yl)pyrimidin-2-ylamino)ethylamino)nicotinonitrile]",induction of Tau-EGFP expression and neuronal morphology (screen hit),[2],induce Tau-EGFP expression and a neuronal morphology
"N[C@@]1(C(=O)O)CC[C@@H](C(=O)O)C1 [ACPD, (1S,3R)-1-aminocyclopentane-1,3-dicarboxylic acid]",induction of Tau-EGFP expression and neuronal morphology (screen hit),[2],induce Tau-EGFP expression and a neuronal morphology
same,EC50,[8],9 to 40 µM
picrotoxin,effect on inhibitory postsynaptic currents (sIPSCs),"[7]; GABAA receptor antagonist, 50 μM",blocked
"Nc1ccccc1NC(=O)c1ccc(CNC(=O)OCc2cccnc2)cc1 [MS-27-275, pyridin-3-ylmethyl-N-[[4-[(2-aminophenyl)carbamoyl]phenyl]methyl]carbamate]",IC50,[5],100 to 1000 nM
"CC1(C)NC(=O)C(CCCCCC(=O)[C@H]2CO2)NC(=O)C2CCCN2C(=O)[C@@H](Cc2ccccc2)NC1=O (stereo partly drawn) [Chlamydocin, (3R)-3-benzyl-6,6-dimethyl-9-[6-[(2R)-oxiran-2-yl]-6-oxohexyl]-1,4,7,10-tetrazabicyclo[10.3.0]pentadecane-2,5,8,11-tetrone]",IC50,[5]; isoform not stated,~0.15 nM
"O=C(Nc1c(Cl)cncc1Cl)c1ccc(OC(F)F)c(OCC2CC2)c1 [roflumilast, 3-(cyclopropylmethoxy)-N-(3,5-dichloropyridin-4-yl)-4-(difluoromethoxy)benzamide]",IC50,[4],0.6 nM
"(2S,3S,4R,5R)-3,4-dihydroxy-5-[6-[(3-iodophenyl)methylamino]purin-9-yl]-N-ethyloxolane-2-carboxamide [IB-MECA]",induction of Tau-EGFP expression and neuronal morphology (screen hit),[2],induce Tau-EGFP expression and a neuronal morphology
"CCOC(=O)c1ccc(N(C)C2CSC(c3ccccc3)=N2)cc1 (stereo not shown) [KHS2, ethyl 4-(methyl(2-phenyl-4,5-dihydrothiazol-4-yl)amino)benzoate]",induction of Tau-EGFP expression and neuronal morphology (screen hit),[2],induce Tau-EGFP expression and a neuronal morphology
"CC(/C=C/C(=O)NO)=C\[C@@H](C)C(=O)c1ccc(N(C)C)cc1 [Trichostatin A, (R,2E,4E)-6-(4-(dimethylamino)benzoyl)-N-hydroxy-4-methylhepta-2,4-dienamide]",induction of Tau-EGFP expression and neuronal morphology (screen hit),[2],induce Tau-EGFP expression and a neuronal morphology
same,IC50,[5],~1.8 nM
"Nc1ccccc1NC(=O)CCCCCCC(=O)Nc1ccccc1 [BML-210, N1-(2-aminophenyl)-N8-phenyl-octanediamide]",IC50,[9],~80 µM
"N[C@@]1(C(=O)O)CC[C@H]2[C@H](C(=O)O)[C@H]21 [LY354740, 1S,2S,5R,6S-2-aminobicyclo[3.1.0]hexane-2,6-dicarboxylate]",IC50,[10],~254 nM
"COc1ccc(C2(C#N)CCC(C(=O)O)CC2)cc1OC1CCCC1 (stereo not shown) [ariflo, 4-cyano-4-(3-cyclopentyloxy-4-methoxyphenyl)cyclohexane-1-carboxylic acid]",IC50,[4],~150 nM
"O=C(Nc1cc(Cl)cc(Cl)c1)[C@H]1CCCC[C@H]1C(=O)O (relative stereo) [VU0155041, cis-2-[[(3,5-dichlorophenyl)amino]carbonyl]cyclohexanecarboxylic acid]",EC50,[1],1000 nM
"Cc1cc(C)cc(C(=O)OC2CC3CCC(C2)N3C)c1 (stereo not shown) [TDMB, Tropanyl-3,5-dimethylbenzoate]",induction of Tau-EGFP expression and neuronal morphology (screen hit),[2],induce Tau-EGFP expression and a neuronal morphology
"NC(=O)[C@@H]1CCCC[C@@H]1C(=O)Nc1ccc(Cl)c(Cl)c1 [Lu AF21934, (1S,2R)-N1-(3,4-dichlorophenyl)cyclohexane-1,2-dicarboxamide]",EC50,[1],500 nM
"O=C(O)c1ccc(-c2ccc3cc(O)c(C45CC6CC(CC(C6)C4)C5)cc3c2)cc1 [CD1530, 4-(6-hydroxy-7-tricyclo[3.3.1.13,7]dec-1-yl-2-naphthalenyl)benzoic acid]",induction of Tau-EGFP expression and neuronal morphology (screen hit),[2],induce Tau-EGFP expression and a neuronal morphology
"COc1ccc(C2CNC(=O)C2)cc1OC1CCCC1 (stereo not shown) [rolipram, 4-(3-cyclopentyloxy-4-methoxyphenyl)pyrrolidin-2-one]",induction of Tau-EGFP expression and neuronal morphology (screen hit),[2],induce Tau-EGFP expression and a neuronal morphology
"Cc1cc2c3c(c1)C(c1ccccc1)=N[C@@H](NC(=O)c1ccncc1)C(=O)N3CC2 [Cl-1018, N-[(3R)-9-methyl-4-oxo-1-phenyl-3,4,6,7-tetrahydro[1,4]diazepino[6,7,1-hi]indol-3-yl]pyridine-4-carboxamide]",IC50,[4],~3000 nM
"CCOc1ccccc1C(=O)Nc1ccc(Cl)c(C(F)(F)F)c1 [CTB, N-(4-chloro-3-trifluoromethyl-phenyl)-2-ethoxybenzamide]",activity as p300 activator relative to CTPB,[11],comparable or higher activity
"NC1=N[C@H](O)[C@H]2[C@H]3O[C@]4(O)O[C@@H]([C@@H](O)[C@@]2(N1)[C@@H]4O)[C@]3(O)CO [TTX, tetrodotoxin]",effect on trains of action potentials,[12],abolished
